Measured values: patent EP0973746B1, “SUBSTITUTED 3-CYANO QUINOLINES” (Wyeth Holdings Corporation, priority 1997, dated 1998)
≈ marks a conversion by molar mass, not a printed value. Where “and” joins values, the source holds several entries; their conditions need not be identical. Equal values may be shown once. Read-outs that look alike come from different tables or passages of the source. One block for each molecule: values may come before it.

Experiments:
[1] = molecular target: T1, Kinase insert Domain containing Receptor (KDR: the catalytic domain of the VEGF receptor) (Homo sapiens, UniProt P35968); assay: Inhibition of Kinase insert Domain containing Receptor (KDR); type: biochemical;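 also: KDR phosphorylating a Glu:Tyr 4:1 copolymer with P32- or P33-labelled ATP, Mg++ and vanadate, read as acid-insoluble radiolabel, compared with compound-free reaction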
T1 construct: KDR: the catalytic domain of the VEGF receptor
Experimental: In this standard pharmacological test procedure, KDR protein is mixed, in the presence or absence of a inhibitor compound, with a substrate peptide to be phosphorylated (a copolymer of glutamic acid and tyrosine, E:Y :: 4:1) and other cofactors such as Mg^++ and sodium vanadate (a protein tyrosine phosphatase inhibitor) in an appropriate buffer to maintain pH (7.2). ATP and a radioactive tracer (either P^32-or P^33- labeled ATP) is then add to initiate phosphorylation. After incubation, the radioactive phosphate associated with the acid-insoluble fraction of the assay mixture is then quantified as reflection of substrate phosphorylation.

[2] = molecular target: recombinant human MEK 1 (MAPKK) and recombinant human ERK2 (MAPK); assay: Mitogen Activated Protein Kinase (MAPK) assay, two component coupled MEK 1 / ERK2; type: biochemical; details: separate entries for the same compound = evaluated more than one time;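 also: MEK 1-activated ERK2 phosphorylates MBP or Myc peptide with 33P-ATP, filter capture and scintillation counting, inhibitor preincubated with ERK2 30 min at 0 °C, inhibition relative to uninhibited control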
[3] = molecular target: T2, His-tagged cytoplasmic domain of EGFR (Homo sapiens, UniProt P00533); assay: Inhibition of Epidermal Growth Factor Receptor Kinase (EGF-R) using recombinant enzyme; type: biochemical; details: recombinant enzyme; RR-SRC peptide; average of the number of tests; read-out: IC50;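 also: radiometric kinase assay measuring radiolabeled phosphate transfer from ATP onto the peptide tyrosine by scintillation counting, control is reaction without compound, background subtracted, IC50 from dose-response curve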
T2 construct: containing the EGFR cDNA encoding amino acids 645 - 1186 preceded by Met-Ala-(His)6; made in house; host or cells: Sf9 cells, recombinant baculovirus vHcEGFR52

SW620 = assay: Inhibition of cancer cell growth as measured by cell number, SW620; type: cell-based, human; details: Homo sapiens, SW-620, 48 h, Table 8;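 also: SW620 was included as a cell line with little or no EGFR or HER2/neu expression, in contrast to receptor-overexpressing lines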
Text: (§1) The cell lines were chosen since they overexpressed epidermal growth factor receptor (EGFR) (i.e. A431) or HER2/neu (SKBR3), or had little to no expression of the these receptors (SW620, LOX, MCF7).

MCF7 = assay: Inhibition of cancer cell growth as measured by cell number, MCF7; type: cell-based, human; details: Homo sapiens, MCF7, 48 h, Table 8;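 also: MCF7 was included as a line with little or no EGFR or HER2/neu expression, in contrast to the receptor-overexpressing lines of the panel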
Text: as §1

LOX = assay: Inhibition of cancer cell growth as measured by cell number, LOX; type: cell-based, human; details: Homo sapiens, LOX, 48 h, Table 8;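 also: LOX cells served as a line with low or absent EGFR and HER2/neu expression, in contrast to receptor-overexpressing lines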
Text: as §1

A431 = assay: Inhibition of cancer cell growth as measured by cell number, A431; type: cell-based, human; details: Homo sapiens, A-431, 48 h, Table 8;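 also: human A431 line, picked because it overexpresses epidermal growth factor receptor (EGFR)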
Text: as §1

SKBR3 = assay: Inhibition of cancer cell growth as measured by cell number, SKBR3; type: cell-based, human; details: Homo sapiens, Table 8;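 also: SK-BR-3 cells were selected as a line overexpressing HER2/neu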
Text: as §1

[4] = pH 7.2, radioactive format, read-out: KDR IC50 (converted)
[5] = read-out: IC50 SW620, cell number, Sulforhodamine B, 48 hours exposure
[6] = read-out: IC50 MCF7, cell number, Sulforhodamine B, 48 hours exposure
[7] = read-out: IC50 LOX, cell number, Sulforhodamine B, 48 hours exposure
[8] = read-out: IC50 A431, cell number, Sulforhodamine B, 48 hours exposure
[9] = SK-BR-3, 48 h, read-out: IC50 SKBR3, cell number, Sulforhodamine B, 48 hours exposure
[10] = cell number, Sulforhodamine B, 48 hours exposure, read-out: IC50 SW620
[11] = cell number, Sulforhodamine B, 48 hours exposure, read-out: IC50 MCF7
[12] = cell number, Sulforhodamine B, 48 hours exposure, read-out: IC50 LOX
[13] = cell number, Sulforhodamine B, 48 hours exposure, read-out: IC50 A431
[14] = SK-BR-3, cell number, Sulforhodamine B, 48 hours exposure, read-out: IC50 SKBR3

T2 sequence (P00533 669-1210): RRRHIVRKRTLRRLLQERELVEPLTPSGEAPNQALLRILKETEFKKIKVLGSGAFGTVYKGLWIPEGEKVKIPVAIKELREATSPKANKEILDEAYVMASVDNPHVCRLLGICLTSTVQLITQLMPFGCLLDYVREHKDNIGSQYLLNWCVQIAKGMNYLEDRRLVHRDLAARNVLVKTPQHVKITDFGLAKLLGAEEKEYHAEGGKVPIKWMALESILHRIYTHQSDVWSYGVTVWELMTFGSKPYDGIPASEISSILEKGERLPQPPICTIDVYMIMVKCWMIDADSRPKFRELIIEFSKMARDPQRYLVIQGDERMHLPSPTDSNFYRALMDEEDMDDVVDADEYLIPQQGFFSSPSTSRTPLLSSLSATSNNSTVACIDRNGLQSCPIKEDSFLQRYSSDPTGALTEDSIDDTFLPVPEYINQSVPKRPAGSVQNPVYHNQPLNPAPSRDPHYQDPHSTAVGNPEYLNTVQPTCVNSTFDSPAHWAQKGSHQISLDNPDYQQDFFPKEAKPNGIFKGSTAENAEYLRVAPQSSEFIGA
T1 sequence (P35968 834-1162 limits assumed): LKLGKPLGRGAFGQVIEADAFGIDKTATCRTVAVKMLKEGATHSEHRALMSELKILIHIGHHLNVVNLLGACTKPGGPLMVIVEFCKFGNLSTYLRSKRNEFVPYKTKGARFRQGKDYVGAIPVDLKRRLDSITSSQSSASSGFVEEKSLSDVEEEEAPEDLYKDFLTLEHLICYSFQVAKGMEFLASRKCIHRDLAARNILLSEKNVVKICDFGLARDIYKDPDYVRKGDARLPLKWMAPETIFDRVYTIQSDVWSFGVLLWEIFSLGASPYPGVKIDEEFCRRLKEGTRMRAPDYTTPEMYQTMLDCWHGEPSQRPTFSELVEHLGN

Molecule: COc1cc2c(Nc3cc(O)c(Cl)cc3F)c(C#N)cnc2cc1OCCN(C)C [Example 86, 4-(4-Chloro-2-fluoro-5-hydroxy-phenylamino)-7-(2-dimethylamino-ethoxy)-6-methoxy-quinoline-3-carbonitrile]
IC50 [1, 4]: 6.96 µM
IC50 [2]: 1.8 µM and 2 µM

Molecule: COc1cc2c(Nc3cc(O)c(Cl)cc3F)c(C#N)cnc2cc1OCCN1CCOCC1 [Example 87, 4-(4-Chloro-2-fluoro-5-hydroxy-phenylamino)-6-methoxy-7-(2-morpholin-4-yl-ethoxy)-quinoline-3-carbonitrile]
IC50 [1, 4]: 6.34 µM

Molecule: CCOc1cc2c(Nc3ccc(C)c(O)c3)c(C#N)cnc2cc1OC [Example 97, 6-Ethoxy-4-(3-hydroxy-4-methylphenylamino)-7-methoxyquinoline-3-carbonitrile]
IC50 [1, 4]: 0.286 µM

Molecule: Cc1cc([N+](=O)[O-])cc2c(Nc3cccc(Br)c3)c(C#N)cnc12 [Example 105, 4-[(3-Bromophenyl)amino]-8-methyl-6-nitro-3-quinolinecarbonitrile]
IC50 [3]: 0.001 µM
IC50 (SW620; [5]): 0.06 µg/mL (≈ 0.157 µM)
IC50 (MCF7; [6]): 2.09 µg/mL (≈ 5.45 µM)
IC50 (LOX; [7]): 0.72 µg/mL (≈ 1.88 µM)
IC50 (A431; [8]): 0.13 µg/mL (≈ 0.339 µM)
IC50 (SKBR3; [9]): 1.84 µg/mL (≈ 4.8 µM)
IC50 [2]: > 100 µM

Molecule: COc1cc2ncc(C#N)c(Nc3ccc(Cl)cc3F)c2cc1OCCCN1CCOCC1 [Example 127]
IC50 [1]: 21.2 µM
IC50 [2]: 6 µM

Molecule: COc1cc2ncc(C#N)c(Nc3ccc(C)c(O)c3)c2cc1OCCCN1CCOCC1 [Example 128]
IC50 [1]: 17.8 µM

Molecule: N#Cc1cnc2ccc([N+](=O)[O-])cc2c1Nc1ccc(F)c(F)c1 [Example 156, 4-[(3,4-Difluorophenyl)amino]-6-nitro-3-quinolinecarbonitrile]
IC50 [3]: 0.5 µM
IC50 (SW620; [5]): 7.91 µg/mL (≈ 24.2 µM)
IC50 (MCF7; [6]): 7.57 µg/mL (≈ 23.2 µM)
IC50 (LOX; [7]): 67 µg/mL (≈ 205 µM)
IC50 (A431; [8]): 3.77 µg/mL (≈ 11.6 µM)
IC50 (SKBR3; [9]): 7.43 µg/mL (≈ 22.8 µM)
IC50 [2]: > 100 µM

Molecule: C#Cc1cccc(Nc2c(C#N)cnc3ccc(NC(=O)C=C)cc23)c1 [Example 165, N-{3-Cyano-4-[(3-ethynyphenyl)amino]-6-quinolinyl)-2-propenamide]
IC50 [3]: 0.0005 µM
IC50 (SW620; [5]): 3 µg/mL (≈ 8.87 µM)
IC50 (MCF7; [6]): 5.8 µg/mL (≈ 17.1 µM)
IC50 (LOX; [7]): 0.8 µg/mL (≈ 2.36 µM)
IC50 (A431; [8]): 0.2 µg/mL (≈ 0.591 µM)
IC50 (SKBR3; [9]): 0.1 µg/mL (≈ 0.296 µM)
IC50 [2]: > 100 µM

Molecule: C=C(CC(=O)Nc1ccc2ncc(C#N)c(Nc3cccc(Br)c3)c2c1)C(=O)O [Example 186, 4-[[4-[(3-Bromophenyl)amino]-3-cyano-6-quinolinyl]-amino]-2-methylene-4-oxo-butanoic acid]
IC50 [3]: 0.1 µM
IC50 (SW620; [5]): 62.6 µg/mL (≈ 139 µM)
IC50 (MCF7; [6]): 42.5 µg/mL (≈ 94.2 µM)
IC50 (LOX; [7]): 46.4 µg/mL (≈ 103 µM)
IC50 (A431; [8]): 37.6 µg/mL (≈ 83.3 µM)
IC50 (SKBR3; [9]): 21.5 µg/mL (≈ 47.6 µM)

Molecule: COc1ccc(OC)c2c(Nc3ccc(C)c(O)c3)c(C#N)cnc12 [Example 239, 4-(3-Hydroxy-4-methyl-phenylamino)-5,8-dimethoxy-quinoline-3-carbonitrile]
IC50 [1, 4]: > 89.5 µM
IC50 [2]: > 100 µM

Molecule: COc1ccc(OC)c2c(Nc3cccc(Br)c3)c(C#N)cnc12 [Example 240, 4-(3-Bromo-phenylamino)-5.8-dimethoxy-quinoline-3-carbonitrile]
IC50 [1, 4]: > 78.1 µM
IC50 [2]: 10 µM

Molecule: COc1ccc(OC)c2c(Nc3cccc(N(C)C)c3)c(C#N)cnc12 [Example 242, 4-(3-Dimethylamino-phenylamino)-5,8-dimethoxy-quinoline-3-carbonitrile]
IC50 [1, 4]: > 86.1 µM
IC50 [2]: 10 µM

Molecule: COc1ccc(OC)c2c(Nc3cc(O)c(Cl)cc3F)c(C#N)cnc12 [Example 243, 4-(4-Chloro-2-fluoro-5-hydroxy-phenylamino)-5,8-dimethoxy-quinoline-3-carbonitrile]
IC50 [1, 4]: > 80.3 µM
IC50 [2]: > 100 µM

Molecule: COc1cc2ncc(C#N)c(Nc3ccc(O)c(Cl)c3)c2cc1OC [Example 249, 4-(3-Chloro-4-hydroxy-phenylamino)-6,7-dimethoxy-quinoline-3-carbonitrile]
IC50 [1, 4]: > 28.1 µM
IC50 [2]: 15 µM

Molecule: COc1cc2ncc(C#N)c(Nc3ccc(Sc4ccccc4)c(Cl)c3)c2cc1OC [Example 255, 4-[3-Chloro-4-(phenylthio)phenylamino]-6,7-dimethoxy-3-quinolinecarbonitrile]
IC50 [3]: 0.1 µM
IC50 (SW620; [5]): 0.58 µg/mL (≈ 1.29 µM)
IC50 (MCF7; [6]): 2.85 µg/mL (≈ 6.36 µM)
IC50 (LOX; [7]): 0.69 µg/mL (≈ 1.54 µM)
IC50 (A431; [8]): 0.59 µg/mL (≈ 1.32 µM)
IC50 (SKBR3; [9]): 0.35 µg/mL (≈ 0.781 µM)

Second part, the molecule after the results:

KDR IC50 ([1]; pH 7.2, radioactive format): >30 µg/mL
IC50 [2]: > 100 µM
Molecule: 4-(4-Chloro-2-fluoro-phenylamino)-5,8-dimethoxy-quinoline-3-carbonitrile [Example 238]

IC50 [1, 4]: > 79.3 µM
Molecule: COc1cc2c(Nc3cccc(N(C)C)c3)c(C#N)cnc2c(OC)c1OC [Example 232, 4-(3-Dimethylamino-phenylamino)-6.7.8-trimethoxy-quinoline-3-carbonitrile]

IC50 [1, 4]: > 82.1 µM
IC50 [2]: 80 µM
Molecule: COc1cc2c(Nc3ccc(C)c(O)c3)c(C#N)cnc2c(OC)c1OC [Example 233, 4-(3-Hydroxy-4-methyl-phenylamino)-6,7,8-trimethoxy-quinoline-3-carbonitrile]

IC50 [1, 4]: > 77.4 µM
IC50 [2]: > 100 µM
Molecule: COc1cc2c(Nc3ccc(Cl)cc3F)c(C#N)cnc2c(OC)c1OC [Example 234, 4-(4-Chloro-2-fluoro-phenylamino)-6,7,8-trimethoxy-quinoline-3-carbonitrile]

IC50 [1, 4]: > 28.5 µM
IC50 [2]: 10 µM
Molecule: COc1cc2ncc(C#N)c(Nc3ccccc3SC)c2cc1OC [Example 250, 6,7-Dimethoxy-4-(2-methylsulfanyl-phenylamino)-quinoline-3-carbonitrile]

IC50 [3]: 0.0045 µM
IC50 (SW620; [10]): 0.15 µg/mL (≈ 0.306 µM)
IC50 (MCF7; [11]): 0.78 µg/mL (≈ 1.59 µM)
IC50 (LOX; [12]): 0.33 µg/mL (≈ 0.673 µM)
IC50 (A431; [13]): 0.19 µg/mL (≈ 0.387 µM)
IC50 (SKBR3; [14]): 0.02 µg/mL (≈ 0.0408 µM)
IC50 [2]: > 100 µM
Molecule: N#Cc1cnc2ccc(NC(=O)C#CCN3CCOCC3)cc2c1Nc1cccc(Br)c1 [Example 328, N-[4-[(3-Bromophenyl)amino]-3-cyano-6-quinolinyl]-4-morpholino-2-butynamide]

IC50 [3]: 0.00045 µM
IC50 (SW620; [10]): 0.03 µg/mL (≈ 0.0669 µM)
IC50 (MCF7; [11]): 0.75 µg/mL (≈ 1.67 µM)
IC50 (LOX; [12]): 0.58 µg/mL (≈ 1.29 µM)
IC50 (A431; [13]): 0.22 µg/mL (≈ 0.491 µM)
IC50 (SKBR3; [14]): 0.21 µg/mL (≈ 0.468 µM)
IC50 [2]: > 100 µM
Molecule: CN(C)CC#CC(=O)Nc1ccc2ncc(C#N)c(Nc3cccc(Br)c3)c2c1 [Example 329, N-[4-[(3-Bromophenyl)amino]-3-cyano-6-quinolinyl]-4-dimethylamino-2-butynamide]

IC50 [3]: 0.00028 µM
IC50 (SW620; [10]): 0.02 µg/mL (≈ 0.0459 µM)
IC50 (MCF7; [11]): 0.36 µg/mL (≈ 0.827 µM)
IC50 (LOX; [12]): 0.02 µg/mL (≈ 0.0459 µM)
IC50 (A431; [13]): 0.05 µg/mL (≈ 0.115 µM)
IC50 (SKBR3; [14]): 0.23 µg/mL (≈ 0.528 µM)
IC50 [2]: > 100 µM
Molecule: COCC#CC(=O)Nc1ccc2ncc(C#N)c(Nc3cccc(Br)c3)c2c1 [Example 330, N-[4-[(3-Bromophenyl)amino]-3-cyano-6-quinoliny]-4-methoxy-2-butynamide]

IC50 [3]: 0.0009 µM
IC50 (SW620; [10]): 0.44 µg/mL (≈ 1.04 µM)
IC50 (MCF7; [11]): 54.9 µg/mL (≈ 130 µM)
IC50 (LOX; [12]): 0.51 µg/mL (≈ 1.21 µM)
IC50 (A431; [13]): 0.6 µg/mL (≈ 1.42 µM)
IC50 (SKBR3; [14]): 0.08 µg/mL (≈ 0.19 µM)
IC50 [2]: 25 µM and < 50 µM
Molecule: N#Cc1cnc2ccc(NC(=O)C#CCO)cc2c1Nc1cccc(Br)c1 [Example 332]

IC50 [3]: 0.1 µM
IC50 (SW620; [10]): 4.1 µg/mL (≈ 9.1 µM)
IC50 (MCF7; [11]): 7.8 µg/mL (≈ 17.3 µM)
IC50 (LOX; [12]): 2.5 µg/mL (≈ 5.55 µM)
IC50 (A431; [13]): 0.5 µg/mL (≈ 1.11 µM)
IC50 (SKBR3; [14]): 0.7 µg/mL (≈ 1.55 µM)
IC50 [2]: 18 µM
Molecule: N#Cc1cnc2ccc(NCCCN3CCCC3)cc2c1Nc1cccc(Br)c1 [Example 358, 4-(3-Bromo-phenylamino)-6-(3-pyrrolidin-1-yl-propylamino)-quinoline-3-carbonitrile]

IC50 [3]: 0.1 µM
IC50 (SW620; [10]): 0.08 µg/mL (≈ 0.261 µM)
IC50 (MCF7; [11]): 0.8 µg/mL (≈ 2.61 µM)
IC50 (LOX; [12]): 0.08 µg/mL (≈ 0.261 µM)
IC50 (A431; [13]): 0.07 µg/mL (≈ 0.228 µM)
IC50 (SKBR3; [14]): 0.06 µg/mL (≈ 0.196 µM)
IC50 [2]: 25 µM
Molecule: CSc1cccc(Nc2c(C#N)cnc3ccc(N)cc23)c1 [Example 363, 6-Amino-4-[(3-methylsulfanylphenyl)amino]-3-quinolinecarbonitrile]
